Measurements as given in patent US20110263662A1, “1,2-DIAMIDO-ETHYLENE DERIVATIVES AS OREXIN ANTAGONISTS” (priority 2007, published 2011).

What was measured:
human orexin-1 receptor = target: T1, human orexin-1 receptor (Homo sapiens, UniProt O43613); assay: FLIPR intracellular calcium assay, orexin receptor antagonistic activity (OX1); format: cell-based; conditions: CHO cells expressing human orexin-1 receptor, 3 nM orexin-A
T1 construct: expressed in transfected cells; host or cells: CHO (Chinese hamster ovary) cells, grown under G418 selection
T1 sequence (O43613 1-425): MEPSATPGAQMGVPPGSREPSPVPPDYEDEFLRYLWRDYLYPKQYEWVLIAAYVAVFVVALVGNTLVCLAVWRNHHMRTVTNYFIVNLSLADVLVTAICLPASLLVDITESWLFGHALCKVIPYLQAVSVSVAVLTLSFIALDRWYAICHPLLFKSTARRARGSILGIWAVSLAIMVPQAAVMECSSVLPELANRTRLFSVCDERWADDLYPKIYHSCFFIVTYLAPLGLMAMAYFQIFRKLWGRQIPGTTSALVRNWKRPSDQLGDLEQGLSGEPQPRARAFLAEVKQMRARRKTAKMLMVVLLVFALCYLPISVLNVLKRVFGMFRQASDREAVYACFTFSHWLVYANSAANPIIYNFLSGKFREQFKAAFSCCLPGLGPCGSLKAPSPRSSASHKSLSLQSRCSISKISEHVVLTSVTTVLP
Method: (§1) Chinese hamster ovary (CHO) cells expressing the human orexin-1 receptor and the human orexin-2 receptor, respectively, are grown in culture medium (Ham F-12 with L-Glutamine) containing 300 μg/ml G418, 100 U/ml penicillin, 100 μg/ml streptomycin and 10% heat inactivated fetal calf serum (FCS). The cells are seeded at 20′000 cells/well into 384-well black clear bottom sterile plates (Greiner). The seeded plates are incubated overnight at 37° C. in 5% CO2.
(§2) Human orexin-A as an agonist is prepared as 1 mM stock solution in MeOH:water (1:1), diluted in HBSS containing 0.1% bovine serum albumin (BSA), NaHCO3:0.375 g/l and 20 mM HEPES for use in the assay at a final concentration of 3 nM.
(§3) Antagonists are prepared as 10 mM stock solution in DMSO, then diluted in 384-well plates, first in DMSO, then in HBSS containing 0.1% bovine serum albumin (BSA), NaHCO3: 0.375 g/l and 20 mM HEPES.
(§4) On the day of the assay, 50 μl of staining buffer (HBSS containing 1% FCS, 20 mM HEPES, NaHCO3: 0.375 g/l, 5 mM probenecid (Sigma) and 3 μM of the fluorescent calcium indicator fluo-4 AM (1 mM stock solution in DMSO, containing 10% pluronic) is added to each well.
(§5) The 384-well cell-plates are incubated for 50 min at 37° C. in 5% CO2 followed by equilibration at RT for 30-120 min before measurement.
(§6) Within the Fluorescent Imaging Plate Reader (FLIPR2 or FLIPR Tetra, Molecular Devices), antagonists are added to the plate in a volume of 10 μl/well, incubated for 10 min and finally 10 μl/well of agonist is added. Fluorescence is measured for each well at 1 second intervals, and the height of each fluorescence peak is compared to the height of the fluorescence peak induced by 3 nM orexin-A with vehicle in place of antagonist. For each antagonist, the IC50 value (the concentration of compound needed to inhibit 50% of the agonistic response) is determined. Optimized conditions may be achieved by adjustment of pipetting speed and cell splitting regime. The calculated IC50 values of the compounds may fluctuate depending on the daily cellular assay performance. Fluctuations of this kind are known to those skilled in the art.

human orexin-2 receptor = target: T2, human orexin-2 receptor (Homo sapiens, UniProt O43614); assay: FLIPR intracellular calcium assay, orexin receptor antagonistic activity (OX2); format: cell-based; conditions: CHO cells expressing human orexin-2 receptor, 3 nM orexin-A
T2 construct: expressed in transfected cells; host or cells: CHO (Chinese hamster ovary) cells, grown under G418 selection
T2 sequence (O43614 1-444): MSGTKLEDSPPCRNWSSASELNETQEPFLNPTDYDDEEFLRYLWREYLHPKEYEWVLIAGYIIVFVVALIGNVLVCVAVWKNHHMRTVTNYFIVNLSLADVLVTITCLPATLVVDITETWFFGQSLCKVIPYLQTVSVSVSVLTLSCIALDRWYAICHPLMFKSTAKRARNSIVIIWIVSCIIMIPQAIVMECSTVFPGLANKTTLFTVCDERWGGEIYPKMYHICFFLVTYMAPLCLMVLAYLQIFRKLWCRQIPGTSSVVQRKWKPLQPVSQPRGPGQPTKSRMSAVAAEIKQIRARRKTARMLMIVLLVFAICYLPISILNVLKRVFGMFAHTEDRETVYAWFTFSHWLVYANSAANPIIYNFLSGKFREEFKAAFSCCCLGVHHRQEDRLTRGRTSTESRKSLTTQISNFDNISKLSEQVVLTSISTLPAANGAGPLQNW
Method: as §1, §2, §3, §4, §5, §6

[1] = measured with FLIPR Tetra (marked *)

Compound	IC50 (human orexin-1 receptor; measured with FLIPR 2) [nM]	IC50 (human orexin-2 receptor; measured with FLIPR 2) [nM]	IC50 (human orexin-1 receptor; [1]) [nM]	IC50 (human orexin-2 receptor; [1]) [nM]
Cc1nc(C(=O)N(CCNC(=O)c2cccc3c2OCCO3)CC(C)C)c(-c2ccccc2)s1 [Example 31, 2-Methyl-5-phenyl-thiazole-4-carboxylic acid {2-[(2,3-dihydro-benzo[1,4]dioxine-5-carbonyl)-amino]-ethyl}-isobutyl-amide]	504	85	–	–
Cc1cccc(-c2sc(N)nc2C(=O)N(CCNC(=O)c2nn(C)c3ccccc23)CC2CC2)c1 [Example 195, 1-Methyl-1H-indazole-3-carboxylic acid {2-[(2-amino-5-m-tolyl-thiazole-4-carbonyl)-cyclopropylmethyl-amino]-ethyl}-amide]	–	–	57	12
Cc1nc2sccn2c1C(=O)NCC(Cc1ccccc1)NC(=O)c1ccccc1-c1ccccc1 (racemic) [Example 73, 6-Methyl-imidazo[2,1-b]thiazole-5-carboxylic acid {(RS)-2-[(biphenyl-2-carbonyl)-amino]-3-phenyl-propyl}-amide]	119	19	–	–
Cc1nc(C(=O)N(C)C(CNC(=O)c2c(C)nc3sccn23)C2CC2)c(-c2ccccc2)s1 (racemic) [Example 47, 6-Methyl-imidazo[2,1-b]thiazole-5-carboxylic acid {(RS)-2-cyclopropyl-2-[methyl-(2-methyl-5-phenyl-thiazole-4-carbonyl)-amino]ethyl}-amide]	112	50	–	–
COc1cccc(-c2sc(C)nc2C(=O)N(CCNC(=O)c2nn(C)c3ccccc23)C2CC2)c1 [Example 140, 1-Methyl-1H-indazole-3-carboxylic acid (2-{cyclopropyl-[5-(3-methoxy-phenyl)-2-methyl-thiazole-4-carbonyl]-amino}-ethyl)-amide]	–	–	98	68
Cc1nc(C(=O)N(CCNC(=O)c2cccc3c2OCCO3)Cc2ccc(C(F)(F)F)cc2)c(-c2ccccc2)s1 [Example 25, 2-Methyl-5-phenyl-thiazole-4-carboxylic acid {2-[(2,3-dihydro-benzo[1,4]dioxine-5-carbonyl)-amino]-ethyl}-(4-trifluoromethyl-benzyl)-amide]	75	12	–	–
